Data published in patent US8598122B2, “Antagonistic peptides for frizzled-1 and frizzled-2” (Universiteit Maastricht, priority 2009, dated 2013).
Where a SMILES comes first, the peptide text is derived from it.

Tests used:
small intestine = assay: qPCR of Wnt target genes in small intestine after long-term UM206 administration; format: in vivo, mice; parameters: key to Rel. exp. Col I: expression normalized to cyclophilin housekeeping gene; key to Rel. exp. Inos / Rel. exp. CD 44 / Rel. exp. Axin 2 / Rel. exp. Itm 2A / Rel. exp. Mmp 2 / Rel. exp. Ascl 2 / Rel. exp. Dvl 2: relative expression, cyclophilin as housekeeping gene
Text: This was confirmed by histological analysis of the infarct area.
RNA was isolated using the Trizol method (Invitrogen). For the RT-PCR, the RNA was transcribed to cDNA with iscript™ cDNA synthesis kit (Bio-Rad, Hercules Calif., USA), Syber green (Eurogentec, Ghent, Belgium) was used for the detection of cDNA levels and cyclophilin served as the house keeping gene. In Supplementary methods panel 5, the primer sequences are shown.

[1] = mouse, in vivo
Protocol: (§2) UM206 was injected into the femoral artery of Swiss mice (concentration of 10^−9 M). Blood was sampled at different time points in the femoral vein. On the y-axis, the concentration of UM206 in the plasma is shown. This is determined with HPLC and the area under the peak is calculated and shown on the y-axis. All values were corrected for the baseline value.
(§3) In order to determine the pharmacokinetic properties of UM206, we injected 15 ng of the compound into the tail vein of mice and monitored the concentration in the blood at different time points.
(§4) Male Swiss mice were used (10-12 weeks of age, Charles River, Maastricht, The Netherlands).
(§5) Blood samples were collected from the animals for the pharmacokinetics and after 14 to 35 days treatment, to determine the concentration of UM206. Blood was centrifuged and the plasma was treated with 1% TFA.

129S6 mice = assay: Infarct rupture in 129S6 mice; format: in vivo; settings: infarct rupture frequency ˜60%, unpublished observations
Text: Because of the lack of pharmacological tools to intervene in Wnt/Fzd signaling in vivo, only genetic interventions have been reported so far in studies on the role of Wnt signaling in infarct healing. Barandon et al. were the first to show a beneficial effect of overexpression on infarct healing of FrzA, a bovine homologue of soluble frizzled-related protein-1 (sFRP1). They observed a decreased infarct size with elevated numbers of myofibroblasts and increased angiogenesis in the infarcted FrzA transgenic mice (Barandon et al., 2003), which could be confirmed in the present study using an Fzd-1 and -2 antagonist. […] In the mean time, the beneficial effects of sFRP overexpression on infarct healing have been confirmed by Kobayashi et al. (Kobayashi et al., 2009). Taken together, these reports support the observations of the present study and point to a beneficial effect of inhibiting Wnt/Fzd signaling on the wound-healing process after MI.

hFzd-5 = target: T1, hFzd-5 (Homo sapiens, UniProt Q13467); assay: Luciferase activity in HEK293 superTOPflash cells overexpressing hFzd-5; format: cell-based; settings: 1.10^−8 M
T1 construct: expressed in transfected cells; host or cells: HEK293 superTOPflash, transient, pcDNA3.0
Protocol: In FIG. 3, Panel E, the efficacy of UM206 to block the Wnt3a-induced activation of luciferase activity in HEK293 superTOPflash cells transfected with different Fzds is shown.
The cell lines were cultured in 75 cm^2 culture flasks (Corning, Schiphol, the Netherlands) in Dulbeco's modified essential medium with L-glutamine (2 mM), 10% fetal calf serum (Invitrogen, Merelbeke, Belgium), and 1% gentamycin (Sigma-Aldrich, Zwijndrecht, The Netherlands). Before starting the experiment, the cell lines were treated with plasmocin 25 μg/ml (Invivogen, Toulose, France) and tested with a mycoalert mycoplasma detection kit (Lonza, Rockland Me., USA). Cells were transiently transfected with Fugene6 (Roche, Indianapolis Ind., USA) with plasmid DNA, pcDNA3.1/hygro (Invitrogen) with frizzled-1/2/4 or Wnts 3a-5a or with pcDNA3.0 (Invitrogen) containing the β-catenin or frizzled-5 sequence. After transfection, the cells were cultured for 24 hours in conditioned medium, collected from the cultured L-cells, L-cells with Wnt3a or 5a (Invitrogen). At the same moment the antagonist was added.

[2] = Pharmacokinetics assay in mice
Protocol: as §2, §3, §4, §5

[3] = system: canonical Wnt/Fzd-1/2 signaling; assay: TOPflash experiments in CHO and COS-7 cells overexpressing rFzd-1 or -2; format: cell-based
Text: (§1) Three areas of high homology that contained two cysteines are underlined (UM207), (UM208) and (UM206). In FIGS. 9B through 9D, the inhibitory effect of these three peptides on Wnt3a-induced luciferase activity in HEK293-superTOPflash is shown. […] Again, the peptides by themselves had no effect on the luciferase activity.
For the luciferase experiments not in HEK cells, the cells were additionally transfected with a TOPflash construct, eight TCF/LEF binding sites cloned into the pTA-Luc vector. Luciferase activity was measured using luciferase assay system (Promega, Madison Wis., USA).

[4] = system: Wnt/Fzd signal transduction cascade; assay: Luciferase activity in HEK293-superTOPflash cells (Wnt/Fzd signal transduction cascade); format: cell-based, human; settings: without Wnt3a
Text: Human embryonic kidney (HEK) cells were used for screening. These cells have a luciferase construct stably transfected into the genome (see FIG. 2A), such that when the frizzled receptor is activated and β-catenin is increased, the luciferase is activated by transcription and light can be measured.
as §1

T1 sequence (Q13467 27-585): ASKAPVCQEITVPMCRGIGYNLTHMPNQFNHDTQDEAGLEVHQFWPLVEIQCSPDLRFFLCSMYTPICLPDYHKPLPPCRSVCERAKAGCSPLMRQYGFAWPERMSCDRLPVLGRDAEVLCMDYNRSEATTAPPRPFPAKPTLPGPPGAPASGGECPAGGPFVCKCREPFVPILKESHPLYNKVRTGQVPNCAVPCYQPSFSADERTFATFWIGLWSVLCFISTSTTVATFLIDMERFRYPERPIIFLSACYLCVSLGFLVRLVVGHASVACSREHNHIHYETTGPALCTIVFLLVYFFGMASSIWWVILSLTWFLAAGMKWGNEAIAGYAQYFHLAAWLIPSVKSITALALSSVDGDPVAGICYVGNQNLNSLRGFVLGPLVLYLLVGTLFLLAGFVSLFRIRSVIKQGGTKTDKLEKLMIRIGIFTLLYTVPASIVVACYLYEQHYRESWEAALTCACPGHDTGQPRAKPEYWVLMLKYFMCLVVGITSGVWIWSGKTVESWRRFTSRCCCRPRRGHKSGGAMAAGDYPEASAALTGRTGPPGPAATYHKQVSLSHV

Compound: CSCC[C@H](NC(=O)CNC(=O)[C@H](CCC(=O)O)NC(=O)[C@H](CO)NC(=O)[C@@H](NC(=O)[C@H](CCCCN)NC(=O)[C@H](CC(N)=O)NC(=O)[C@H](CS)NC(C)=O)[C@@H](C)O)C(=O)N[C@@H](CC(=O)O)C(=O)NCC(=O)N[C@@H](CS)C(=O)N[C@@H](CCC(=O)O)C(=O)N[C@@H](CC(C)C)C(N)=O [UM206, Ac-Cys-Asn-Lys-Thr-Ser-Glu-Gly-Met-Asp-Gly-Cys-Glu-Leu-NH2] (Ac-CNKTSEGMDGCEL-NH2)
- influence on the expression patterns in the small intestine (small intestine; UM206 for five weeks): These data indicate that UM206 had no influence on the expression patterns in the small intestine.
- Rel. exp. Ascl 2 (small intestine; small intestine): 1.42
- Rel. exp. Axin 2 (small intestine; small intestine): 1.05
- Rel. exp. CD 44 (small intestine; small intestine): 1.22
- Rel. exp. Col I (small intestine; small intestine): 1.32
- Rel. exp. Dvl 2 (small intestine; small intestine): 1.13
- Rel. exp. Inos (small intestine; small intestine): 1.18
- Rel. exp. Itm 2A (small intestine; small intestine): 0.97
- Rel. exp. Mmp 2 (small intestine; small intestine): 1.32
- time until steady state is reached [1]: ~10 h
- number of ruptured infarcts (129S6 mice): did not reduce the number of ruptured infarcts
- Effect on Wnt3a-induced luciferase activity, frizzled-5 (hFzd-5): no effect
- half-life ([2]; 15 ng into the tail vein of mice, HPLC, n=24): 1.39 h
- half-life ([2]; male, Swiss, mouse, plasma): ~1.5 h
- half-life ([2]; male, Swiss, mouse, plasma, intravenous, 15 ng): 1.39 ± 0.0272 h
- Blocking of canonical Wnt/Fzd-1/2 signaling in two other cell lines [3]: selectively block
- Luciferase activity induced by the peptide by itself [4]: none of the three peptides by itself could induce an increase in luciferase activity
